Where a name gives a salt, the structure may show the parent alone.

T1 sequence (Q8TEK3 1-416): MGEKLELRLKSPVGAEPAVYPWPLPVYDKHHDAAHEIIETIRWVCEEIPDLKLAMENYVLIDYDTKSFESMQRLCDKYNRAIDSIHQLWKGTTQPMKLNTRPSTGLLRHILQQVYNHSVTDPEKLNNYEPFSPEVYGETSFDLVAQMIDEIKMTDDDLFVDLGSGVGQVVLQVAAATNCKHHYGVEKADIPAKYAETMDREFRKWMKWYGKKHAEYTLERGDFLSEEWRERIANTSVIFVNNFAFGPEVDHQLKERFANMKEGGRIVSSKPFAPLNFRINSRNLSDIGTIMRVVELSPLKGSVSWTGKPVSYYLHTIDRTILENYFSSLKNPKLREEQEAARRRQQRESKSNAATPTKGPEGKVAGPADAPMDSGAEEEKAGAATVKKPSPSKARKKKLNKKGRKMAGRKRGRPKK

This experiment addresses T1, DOT1L (1-416) (Homo sapiens, UniProt Q8TEK3).
T1 construct: 40 μl per well of DOT1L (1-416) (0.25 nM final concentration in assay buffer)
The experiment in a line: Determination of IC50: DOT1L (1-416) methyltransferase assay with 3H-SAM and oligonucleosome, Flashplate scintillation readout. The note with it: 0.25 nM DOT1L (1-416), 30 min preincubation, 120 min reaction at room temperature, oligonucleosome substrate. It counts as biochemical. Here is the method:
Compound was serially diluted 3 fold in DMSO for 10 points and 1 μl was plated in a 384 well microtiter plate. Positive control (100% inhibition standard) was 2.5 uM final concentration of S-adenosyl-L-homocysteine and negative control (0% inhibition standard) contained 1 μl of DMSO. Compound was then incubated for 30 minutes with 40 μl per well of DOT1L (1-416) (0.25 nM final concentration in assay buffer: 20 mM TRIS, pH 8.0, 10 mM NaCl, 0.002% Tween20, 0.005% Bovine Skin Gelatin, 100 mM KCl, and 0.5 mM DTT). 10 μl per well of substrate mix (same assay buffer with 200 nM S—[methyl-^3H]-adenosyl-L methionine, 600 nM of unlabeled […], and 20 nM oligonucleosome) was added to initiate the reaction. Reaction was incubated for 120 minutes at room temperature and quenched with 10 μl per well of 100 μM S-methyl-adenosyl-L methionine. For detection, substrate from 50 μl of reaction was immobilized on a 384 well Streptavidin coated Flashplate (Perkin Elmer) (also coated with 0.2% polyethyleneimine) and read on a Top Count scintillation counter (Perkin Elmer).
In the case of `CC(C)N(CCCCc1nc2cc(C(C)(C)C)ccc2[nH]1)C[C@H]1C[C@@H](n2ccc3c(N)ncnc32)[C@H](O)[C@@H]1O` [Compound 1, (1R,2S,3R,5R)-3-(4-amino-7H-pyrrolo[2,3-d]pyrimidin-7-yl)-5-(((4-(5-tert-butyl-1H-benzo[d]imidazol-2-yl)butyl)(isopropyl)amino)methyl)-cyclopentane-1,2-diol], the IC50 (usually the concentration that gives 50% inhibition) is below 0.1 µM.

With `CC(C)N(CCCCc1nc2cc(C(C)(C)C)ccc2[nH]1)C[C@@H]1C[C@@H](n2ccc3c(N)ncnc32)[C@H](O)[C@@H]1O` [Compound 2, (1R,2S,3R,5S)-3-(4-amino-7H-pyrrolo[2,3-d]pyrimidin-7-yl)-5-(((4-(5-tert-butyl-1H-benzo[d]imidazol-2-yl)butyl)(isopropyl)amino)methyl)-cyclopentane-1,2-diol], the concentration for half-maximal inhibition (IC50) is below 0.1 µM.

In turn, `CN(CCCNC(=O)Nc1ccc(C(C)(C)C)cc1)C[C@@H]1C[C@@H](n2cnc3c(N)ncnc32)[C@H](O)[C@@H]1O` [Compound 3, 1-(3-((((1S,2R,3S,4R)-4-(6-amino-9H-purin-9-yl)-2,3-dihydroxycyclopentyl)methyl)-(methyl)amino)propyl)-3-(4-(tert-butyl)phenyl)urea] gave an IC50 below 1 µM.

Take `CC(C)N(CCCCc1nc2cc(C(F)(F)F)c(Cl)cc2[nH]1)C[C@H]1C[C@@H](n2ccc3c(NC4CC4)ncnc32)[C@H](O)[C@@H]1O` [Compound 4, (1S,2R,3R,5R)-3-(((4-(6-chloro-5-(trifluoromethyl)-1H-benzo[d]imidazol-2-yl)butyl)(isopropyl)amino)methyl)-5-(4-(cyclopropylamino)-7H-pyrrolo[2,3-d]pyrimidin-7-yl)cyclopentane-1,2-diol]: the half-inhibitory concentration (IC50) was below 0.1 µM.

Compound `CN(CCCCc1nc2cc(C(F)(F)F)c(Cl)cc2[nH]1)C[C@H]1C[C@@H](n2ccc3c(NC4CC4)ncnc32)[C@H](O)[C@@H]1O` [Compound 5, (1S,2R,3R,5R)-3-(((4-(6-chloro-5-(trifluoromethyl)-1H-benzo[d]imidazol-2-yl)butyl)(methyl)amino)methyl)-5-(4-(cyclopropylamino)-7H-pyrrolo[2,3-d]pyrimidin-7-yl)cyclopentane-1,2-diol] came in with an IC50 below 0.1 µM.

As for `CC(C)N(CCCCc1nc2ccc(C(F)(F)F)cc2[nH]1)C[C@H]1C[C@@H](n2ccc3c(NC4CC4)ncnc32)[C@H](O)[C@@H]1O` [Compound 6, (1R,2S,3R,5R)-3-(4-(cyclopropylamino)-7H-pyrrolo[2,3-d]pyrimidin-7-yl)-5-((isopropyl-(4-(6-(trifluoromethyl)-1H-benzo[d]imidazol-2-yl)butyl)amino)methyl)-cyclopentane-1,2-diol], the IC50 is below 0.1 µM.

`CN(CCCCc1nc2ccc(C(F)(F)F)cc2[nH]1)C[C@H]1C[C@@H](n2ccc3c(NC4CC4)ncnc32)[C@H](O)[C@@H]1O` [Compound 7, (1R,2S,3R,5R)-3-(4-(cyclopropylamino)-7H-pyrrolo[2,3-d]pyrimidin-7-yl)-5-((methyl(4-(6-(trifluoromethyl)-1H-benzo[d]imidazol-2-yl)butyl)amino)methyl)-cyclopentane-1,2-diol]: the 50% inhibitory concentration (IC50) was below 0.1 µM.

The compound `CN(CCCCc1nc2cc(Cl)c(Cl)cc2[nH]1)C[C@H]1C[C@@H](n2ccc3c(NC4CC4)ncnc32)[C@H](O)[C@@H]1O` [Compound 8, (1R,2S,3R,5R)-3-(4-(cyclopropylamino)-7H-pyrrolo[2,3-d]pyrimidin-7-yl)-5-(((4-(5,6-dichloro-1H-benzo[d]imidazol-2-yl)butyl)(methyl)amino)methyl)-cyclopentane-1,2-diol] yielded a half-maximal inhibitory concentration (IC50) below 0.1 µM.

In turn, `CC(C)N(CCCCc1nc2cc(Cl)c(Cl)cc2[nH]1)C[C@H]1C[C@@H](n2ccc3c(NC4CC4)ncnc32)[C@H](O)[C@@H]1O` [Compound 9, (1R,2S,3R,5R)-3-(4-(cyclopropylamino)-7H-pyrrolo[2,3-d]pyrimidin-7-yl)-5-(((4-(5,6-dichloro-1H-benzo[d]imidazol-2-yl)butyl)(isopropyl)amino)methyl)-cyclopentane-1,2-diol trihydrochloride] yielded an IC50 below 0.1 µM.

Take `CN(CCCNC(=O)Nc1ccc(C(C)(C)C)cc1)C[C@H]1C[C@@H](n2cnc3c(N)ncnc32)[C@H](O)[C@@H]1O` [Compound 10, 1-(3-((((1R,2R,3S,4R)-4-(6-amino-9H-purin-9-yl)-2,3-dihydroxycyclopentyl)methyl)(meth-yl)amino)propyl)-3-(4-(tert-butyl)phenyl)urea]: the IC50 is below 0.1 µM.

Consider `CC(C)(C)c1ccc2[nH]c(CCCCN(C[C@H]3C[C@@H](n4ccc5c(NC6CC6)ncnc54)[C@H](O)[C@@H]3O)S(C)(=O)=O)nc2c1` [Compound 11, N-(4-(5-(tert-butyl)-1H-benzo[d]imidazol-2-yl)butyl)-N-(((1R,2R,3S,4R)-4-(4-(cyclopropylamino)-7H-pyrrolo[2,3-d]pyrimidin-7-yl)-2,3-dihydroxycyclopentyl)methyl)-methanesulfonamide], for which the concentration for half-maximal inhibition (IC50) was below 1 µM.

`CS(=O)(=O)N(CCCCc1nc2cc(C(F)(F)F)c(Cl)cc2[nH]1)C[C@H]1C[C@@H](n2ccc3c(NC4CC4)ncnc32)[C@H](O)[C@@H]1O` [Compound 12, N-(4-(6-chloro-5-(trifluoromethyl)-1H-benzo[d]imidazol-2-yl)butyl)-N-(((1R,2R,3S,4R)-4-(4-(cyclopropylamino)-7H-pyrrolo[2,3-d]pyrimidin-7-yl)-2,3-dihydroxycyclopentyl)methyl)-methanesulfonamide] registered a half-maximal inhibitory concentration (IC50) below 1 µM.

In turn, `CN(CCCCc1nc2cc(C(F)(F)F)c(Cl)cc2[nH]1)C[C@H]1C[C@@H](n2ccc3c(N)ncnc32)[C@H](O)[C@@H]1O` [Compound 13, (1R,2S,3R,5R)-3-(4-amino-7H-pyrrolo[2,3-d]pyrimidin-7-yl)-5-(((4-(6-chloro-5-(trifluoromethyl)-1H-benzo[d]imidazol-2-yl)butyl)(methyl)amino)methyl)-cyclopentane-1,2-diol] displayed an IC50 below 0.1 µM.

The compound `CC(C)N(CCCCc1nc2cc(C(F)(F)F)c(Cl)cc2[nH]1)C[C@H]1C[C@@H](n2ccc3c(N)ncnc32)[C@H](O)[C@@H]1O` [Compound 14, (1R,2S,3R,5R)-3-(4-amino-7H-pyrrolo[2,3-d]pyrimidin-7-yl)-5-(((4-(6-chloro-5-(trifluoromethyl)-1H-benzo[d]imidazol-2-yl)butyl)(isopropyl)amino)methyl)-cyclopentane-1,2-diol] had an IC50 below 0.1 µM.

Compound `CS(=O)(=O)N(CCCCc1nc2cc(C(F)(F)F)c(Cl)cc2[nH]1)C[C@H]1C[C@@H](n2ccc3c(N)ncnc32)[C@H](O)[C@@H]1O` [Compound 15, N-(((1R,2R,3S,4R)-4-(4-amino-7H-pyrrolo[2,3-d]pyrimidin-7-yl)-2,3-dihydroxycyclopentyl)methyl)-N-(4-(6-chloro-5-(trifluoromethyl)-1H-benzo[d]imidazol-2-yl)butyl)methanesulfonamide] showed a half-maximal inhibitory concentration (IC50) below 1 µM.

The compound `CS(=O)(=O)N(CCCCc1nc2cc(Cl)c(Cl)cc2[nH]1)C[C@H]1C[C@@H](n2ccc3c(NC4CC4)ncnc32)[C@H](O)[C@@H]1O` [Compound 16, N-(((1R,2R,3S,4R)-4-(4-(cyclopropylamino)-7H-pyrrolo-[2,3-d]pyrimidin-7-yl)-2,3-dihydroxycyclopentyl)methyl)-N-(4-(5,6-dichloro-1H-benzo[d]imidazol-2-yl)butyl)methanesulfonamide] gave an IC50 below 10 µM.

In turn, `CS(=O)(=O)N(CCCCc1nc2cc(C(F)(F)F)ccc2[nH]1)C[C@H]1C[C@@H](n2ccc3c(NC4CC4)ncnc32)[C@H](O)[C@@H]1O` [Compound 17, N-(((1R,2R,3S,4R)-4-(4-(cyclopropylamino)-7H-pyrrolo-[2,3-d]pyrimidin-7-yl)-2,3-dihydroxycyclopentyl)methyl)-N-(4-(5-(trifluoromethyl)-1H-benzo[d]imidazol-2-yl)butyl)methanesulfonamide] had a concentration for half-maximal inhibition (IC50) below 10 µM.

The values are drawn from patent US9394310B2, “Carbocycle-substituted purine and 7-deazapurine compounds” (Epizyme, Inc., priority 2010, dated 2016).
